According to patent US20050124658A1, “Decahydronaphtho[2,3-c]furan derivatives” (Segami Chemical Research Center, priority 2001, published 2005):

Compound | melting point
O=C1OCC2C3OC(C4=C3CCCC4)C12 (stereo not shown) | 105 to 106 °C
O=C1OCC2C3OC(C4CCCCC43)C12 (stereo not shown) | 90 to 91 °C
O=C1OCC2C1CC1CCCCC1C2O (stereo not shown) [Example 5, Decahydro-4-hydoxy-naphtho[2,3-c]furan-1(3H)-one] | 149 to 150 °C
COC1OCC2C(O)C3CCCCC3CC12 (stereo not shown) [Example 6, Dodecahydro-1-methoxy-naphtho[2,3-c]furan-4-ol] | 75 to 77 °C
COC1OCC2C(=O)C3CCCCC3CC12 (stereo not shown) [Example 7, Decahydro-1-methoxy-naphtho[2,3-c]furan-4(1H)-one] | 78 to 79 °C

The next lines start with the values.

melting point | Compound
53 to 55 °C | C=C1C2CCCCC2CC2C(OC)OCC12 (stereo not shown) [Example 8, Dodecahydro-1-methoxy-4-methylenenaphtho[2,3-c]furan]
107 to 108 °C | COC1OCC2C1CC1CCCCC1C2COC(=O)c1ccc(Br)cc1 (stereo not shown) [Example 10, Dodecahydro-4-(4-bromophenyl)carboxymethyl-1-methoxynaphtho[2,3-c]furan]
